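Each compound was tested at five concentrations against cells in 96-well plates for 48 hours. GI50 is the concentration that inhibits growth by half.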 Active and inactive are the calls of the source. Cut-off read from the data, not from the text of the source: active = GI50 up to about 1.1 µM and inactive = higher.
Assays:
Assay in all cases: NCI anticancer screen, dose series, 48 h
T47D = test system: T47D
SNB-75 = test system: SNB-75
UACC-257 = test system: UACC-257
HCT-15 = test system: HCT-15
UACC-62 = test system: UACC-62
SF-268 = test system: SF-268
Malme-3M = test system: Malme-3M
RXF 393 = test system: RXF 393
NCI-H23 = test system: NCI-H23
DU-145 = test system: DU-145
LOX IMVI = test system: LOX IMVI
IGROV-1 = test system: IGROV-1
NCI-H226 = test system: NCI-H226
NCI/ADR-RES = test system: NCI/ADR-RES
KM12 = test system: KM12
SF-539 = test system: SF-539
A549 = test system: A549
MDA-MB-231 = test system: MDA-MB-231
A498 = test system: A498
CCRF-CEM = test system: CCRF-CEM

Row | SMILES | GI50 (T47D) | GI50 (SNB-75) | GI50 (UACC-257) | GI50 (HCT-15) [µM] | GI50 (UACC-62) | GI50 (SF-268) | GI50 (Malme-3M) | GI50 (RXF 393) | GI50 (NCI-H23) | GI50 (DU-145) | GI50 (LOX IMVI) | GI50 (IGROV-1) | GI50 (NCI-H226) | GI50 (NCI/ADR-RES) | GI50 (KM12) | GI50 (SF-539) | GI50 (A549) | GI50 (MDA-MB-231) | GI50 (A498) | GI50 (CCRF-CEM)
1 | NS(=O)(=O)c1ccc(-c2ccc([As](=O)(O)O)cc2)cc1 | > 100 µM (inactive) | 11.6 µM (inactive) | 32.6 µM (inactive) | > 100 | > 100 µM (inactive) | > 100 µM (inactive) | > 100 µM (inactive) | > 100 µM (inactive) | > 100 µM (inactive) | > 100 µM (inactive) | > 100 µM (inactive) | > 100 µM (inactive) | > 100 µM (inactive) | > 100 µM (inactive) | > 100 µM (inactive) | > 100 µM (inactive) | > 100 µM (inactive) | > 100 µM (inactive) | – | –
2 | CCCCN(CC)C(=O)C1=C(C)NC(C)=C(C(=O)N(CC)CCCC)C1 | 62.1 µM (inactive) | 77.1 µM (inactive) | > 100 µM (inactive) | > 100 | 57.7 µM (inactive) | > 100 µM (inactive) | – | > 100 µM (inactive) | > 100 µM (inactive) | > 100 µM (inactive) | > 100 µM (inactive) | 97.7 µM (inactive) | 88.9 µM (inactive) | > 100 µM (inactive) | > 100 µM (inactive) | > 100 µM (inactive) | > 100 µM (inactive) | > 100 µM (inactive) | > 100 µM (inactive) | –
3 | COc1ccc(-n2cnc3c(NCC(=O)O)ncnc32)cc1 | > 100 µM (inactive) | > 100 µM (inactive) | > 100 µM (inactive) | > 100 | > 100 µM (inactive) | > 100 µM (inactive) | 54.1 µM (inactive) | – | > 100 µM (inactive) | > 100 µM (inactive) | > 100 µM (inactive) | > 100 µM (inactive) | > 100 µM (inactive) | > 100 µM (inactive) | > 100 µM (inactive) | – | > 100 µM (inactive) | > 100 µM (inactive) | > 100 µM (inactive) | 48.5 µM (inactive)
4 | Cc1c2c(n(CCc3ccc(Cl)cc3)c1C)NC(c1ccccc1)C(C#N)S2(=O)=O (configuration not stated) | 17.9 µM (inactive) | 44.7 µM (inactive) | 58.6 µM (inactive) | > 48 | 36.6 µM (inactive) | 40.2 µM (inactive) | 20.5 µM (inactive) | – | > 47.9 µM (inactive) | > 60 µM (inactive) | 24.5 µM (inactive) | 17.2 µM (inactive) | > 59.7 µM (inactive) | > 63 µM (inactive) | 18.3 µM (inactive) | 34.8 µM (inactive) | 22.5 µM (inactive) | 11.5 µM (inactive) | > 85.7 µM (inactive) | 2.08 µM (inactive)
5 | CN(C)c1ccc(/C=C2\C[C@H]3[C@@H]4CCc5cc(OCCN6CCCC6)ccc5[C@H]4CC[C@]3(C)C2=O)cc1 | 1.77 µM (inactive) | 1.71 µM (inactive) | 2.21 µM (inactive) | 1.26 | 1.9 µM (inactive) | – | – | 1.57 µM (inactive) | 3.25 µM (inactive) | 1.89 µM (inactive) | – | 1.13 µM (inactive) | 1.82 µM (inactive) | 1.91 µM (inactive) | 1.74 µM (inactive) | 1.59 µM (inactive) | 1.5 µM (inactive) | 1.53 µM (inactive) | 1.96 µM (inactive) | 1.13 µM (inactive)
6 | CC(C)(O)C1OCC(C2CCC3(C)C4=CCC5C(C)(C)C(O)CCC5(C)C4CCC23C)CC1O (configuration not stated) | 13.7 µM (inactive) | 16.9 µM (inactive) | 18.4 µM (inactive) | 14.8 | 14.9 µM (inactive) | 16.1 µM (inactive) | 18.5 µM (inactive) | – | 23.2 µM (inactive) | 17.3 µM (inactive) | 17.9 µM (inactive) | 17.3 µM (inactive) | 13 µM (inactive) | 12.6 µM (inactive) | 14 µM (inactive) | 13.6 µM (inactive) | 14.1 µM (inactive) | 15.3 µM (inactive) | 16.7 µM (inactive) | 26.4 µM (inactive)
7 | COc1ccc2c(c1)/C(=C\c1c(C)nc3n1CCS3)C(=O)N2 | 27.7 µM (inactive) | 28.1 µM (inactive) | 47.6 µM (inactive) | 9.4 | 22.7 µM (inactive) | – | – | 40.7 µM (inactive) | 24.5 µM (inactive) | 39.1 µM (inactive) | 26.5 µM (inactive) | 16.7 µM (inactive) | – | 26.8 µM (inactive) | 6.34 µM (inactive) | 18.3 µM (inactive) | 24.1 µM (inactive) | 30.5 µM (inactive) | 17.8 µM (inactive) | 24.7 µM (inactive)
8 | O=c1cc(N2CCOCC2)[nH]c(=O)n1-c1cccc(C(F)(F)F)c1 | > 100 µM (inactive) | > 100 µM (inactive) | > 100 µM (inactive) | > 100 | > 100 µM (inactive) | > 100 µM (inactive) | > 100 µM (inactive) | – | > 100 µM (inactive) | > 100 µM (inactive) | > 100 µM (inactive) | > 100 µM (inactive) | > 100 µM (inactive) | > 100 µM (inactive) | > 100 µM (inactive) | > 100 µM (inactive) | > 100 µM (inactive) | 20.7 µM (inactive) | > 100 µM (inactive) | > 100 µM (inactive)
9 | c1ccc2nc3c(nc2c1)sc1ccccc13 | > 100 µM (inactive) | 22.2 µM (inactive) | 37.2 µM (inactive) | 58.9 | 14.9 µM (inactive) | 20.7 µM (inactive) | 46.9 µM (inactive) | – | 23.2 µM (inactive) | 50 µM (inactive) | 19.3 µM (inactive) | 15.6 µM (inactive) | 18.6 µM (inactive) | 39.7 µM (inactive) | 47.4 µM (inactive) | 16.4 µM (inactive) | 16.4 µM (inactive) | 30.5 µM (inactive) | 27.4 µM (inactive) | 30.9 µM (inactive)
10 | COc1ccccc1C1Nn2c(nc3ccccc3c2=O)N1c1ccc(C)cc1 (configuration not stated) | 4.82 µM (inactive) | 14.9 µM (inactive) | 16.3 µM (inactive) | 3.49 | 9.31 µM (inactive) | 6.85 µM (inactive) | 14.4 µM (inactive) | 10 µM (inactive) | 10.9 µM (inactive) | 11 µM (inactive) | 7.62 µM (inactive) | 6.34 µM (inactive) | 2.77 µM (inactive) | 9.06 µM (inactive) | 11.2 µM (inactive) | 3.51 µM (inactive) | 6.19 µM (inactive) | 5.62 µM (inactive) | – | 1.82 µM (inactive)
11 | O=C(O)CO/N=C1/C(=C2/C(=O)Nc3ccccc32)Nc2ccccc21 | 35.8 µM (inactive) | 27 µM (inactive) | > 100 µM (inactive) | 35.6 | 38.4 µM (inactive) | 35.7 µM (inactive) | 30.5 µM (inactive) | 19.5 µM (inactive) | 31.6 µM (inactive) | 44.3 µM (inactive) | 28.4 µM (inactive) | 22.9 µM (inactive) | – | > 100 µM (inactive) | 2.99 µM (inactive) | 70.3 µM (inactive) | > 100 µM (inactive) | 62.8 µM (inactive) | 61.8 µM (inactive) | 43.1 µM (inactive)
